From patent US12528837B2, “Aryl substituted polymyxin derivatives” (priority 2018, dated 2026)
“And” between values parts separate entries of the source, which are not always exact repeats. Equal entries are not always repeated.

How the values were obtained:
[1] = Renal toxicity in Cynomolgus monkey, iv infusion 7 days; assay type: in vivo
Protocol: In a separate experiment male monkeys (n=3) were dosed with PMB for the same period at 4 mg/kg/dose. In both experiments control animals were dosed 3 times per day with saline.
At the end of the 7 day period blood was sampled and the serum levels of blood urea nitrogen and creatinine determined as indicators of renal damage.
Kidneys were harvested at the end of the 7 day dosing period and examined microscopically.

A. baumannii NCTC13301 = assay: Neutropenic murine thigh model; assay type: in vivo; settings: CD-1 mice thigh, IV 0.5 mg/kg at 2, 6, 10 h, counts at 16 h, PMB in parentheses, listed as PMB
Protocol: After rendering neutropenic (cyclophosphamide 150 mg/kg d-4, 100 mg/kg d-1), CD-1 mice (n=5) were inoculated in each thigh with approx. 10^5 cfu of A. baumannii NCTC13301. […] At 16 h post-infection mice were euthanised and thighs prepared for colony counts.
In each case the decrease observed with PMB in the same experiment is shown in parentheses: […]

[2] = Renal toxicity in mice, 25 mg/kg sc four doses at 8 hr intervals, biomarkers and histopathology; assay type: in vivo, mouse; settings: mice (n=6), sc 25 mg free base/kg
Protocol: After the fourth dose animals were transferred into individual metabolic cages and urine collected for 24 hours for determination of urinary biomarkers. After collecting urine mice were euthanised and the kidneys harvested for histopathology.

[3] = cynomolgus monkey, in vivo, 4 mg/kg

## Polymyxin B [reference compound]
[1]; Cynomolgus monkey (n=3), 4 mg/kg/dose, 3 times per day, 7 days
  Kidney microscopy: tubular degeneration: 2 showed mild tubular degeneration and 1 minimal
[1]; [3]
  AUC0-8 hr, one dosing cycle on day 7: 117 µg·h/mL
  BUN elevation compared to control animals: 76%
A. baumannii NCTC13301
  Log drop in cfu Compared to Vehicle Control: 4.2 and 4.1
[2]
  Kidney histopathology: signs of degeneration or regeneration: all 6 animals treated with PMB showed minimal tubular regeneration
